28 compounds from patent publication US10072001B2, “Tank-binding kinase inhibitor compounds” (Gilead Sciences, Inc., priority 2014, dated 2018) can be followed below.

pIC50: −log10 of the molar value.

One assay has as its target IKKε (Homo sapiens (Human), UniProt Q14164). Put plainly: TR-FRET kinase assay, IKKε. Particulars: full length recombinant IKKε 0.3 nM, 2x Km ATP, 1 μM peptide, 240 min at 25° C.; geometric mean of minimum four determinations. The class given is biochemical. From the text: Biological Assay for TBK1 and IKKs:
In the next assay the target is TBK1 (Homo sapiens (Human), UniProt Q9UHD2). Put plainly: TR-FRET kinase assay, TBK1. The note with it: read-out: TBK1-IC50; full length recombinant TBK1 2.5 nM, 2x Km ATP, 1 μM peptide, 240 min at 25° C.; geometric mean of minimum four determinations.
Chain of TBK1 (Q9UHD2 whole entry): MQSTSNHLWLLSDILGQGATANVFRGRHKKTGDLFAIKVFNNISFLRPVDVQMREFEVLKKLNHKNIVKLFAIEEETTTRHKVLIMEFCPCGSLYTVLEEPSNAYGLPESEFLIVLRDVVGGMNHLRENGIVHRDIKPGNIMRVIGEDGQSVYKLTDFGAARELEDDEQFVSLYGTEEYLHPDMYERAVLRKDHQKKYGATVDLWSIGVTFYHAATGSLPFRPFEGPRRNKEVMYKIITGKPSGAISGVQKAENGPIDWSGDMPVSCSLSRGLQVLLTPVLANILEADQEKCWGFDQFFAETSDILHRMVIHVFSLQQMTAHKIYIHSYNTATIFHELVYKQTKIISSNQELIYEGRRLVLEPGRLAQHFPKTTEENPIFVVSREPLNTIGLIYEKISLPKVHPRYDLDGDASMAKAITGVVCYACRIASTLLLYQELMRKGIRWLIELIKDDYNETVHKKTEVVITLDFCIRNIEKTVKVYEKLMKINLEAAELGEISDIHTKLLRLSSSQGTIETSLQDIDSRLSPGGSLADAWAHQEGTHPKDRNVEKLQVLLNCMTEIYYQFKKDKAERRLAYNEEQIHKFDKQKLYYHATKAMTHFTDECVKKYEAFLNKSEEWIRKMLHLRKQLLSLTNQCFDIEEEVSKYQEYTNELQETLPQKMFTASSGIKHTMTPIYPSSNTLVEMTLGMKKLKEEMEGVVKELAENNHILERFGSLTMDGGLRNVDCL

Chain of IKKε (Q14164 whole entry): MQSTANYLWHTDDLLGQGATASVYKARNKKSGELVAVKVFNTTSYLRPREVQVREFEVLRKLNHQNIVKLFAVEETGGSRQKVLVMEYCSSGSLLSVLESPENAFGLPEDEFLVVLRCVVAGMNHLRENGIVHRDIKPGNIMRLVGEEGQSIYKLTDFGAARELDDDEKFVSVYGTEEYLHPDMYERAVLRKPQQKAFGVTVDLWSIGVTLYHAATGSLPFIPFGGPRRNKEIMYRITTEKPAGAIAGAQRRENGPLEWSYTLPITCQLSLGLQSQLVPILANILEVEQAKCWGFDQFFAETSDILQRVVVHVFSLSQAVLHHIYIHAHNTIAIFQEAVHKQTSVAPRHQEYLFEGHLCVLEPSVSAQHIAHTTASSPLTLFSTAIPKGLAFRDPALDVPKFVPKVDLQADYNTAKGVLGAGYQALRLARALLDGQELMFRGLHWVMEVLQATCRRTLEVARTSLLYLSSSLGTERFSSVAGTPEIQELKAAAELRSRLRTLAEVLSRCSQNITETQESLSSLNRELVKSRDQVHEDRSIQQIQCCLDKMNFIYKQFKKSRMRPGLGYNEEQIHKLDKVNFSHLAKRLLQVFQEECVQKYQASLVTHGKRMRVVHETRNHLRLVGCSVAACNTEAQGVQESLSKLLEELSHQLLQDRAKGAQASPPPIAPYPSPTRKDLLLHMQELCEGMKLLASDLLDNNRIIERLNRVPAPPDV

For `CC(C)(C)OC(=O)N1CCC(Oc2ccc(-c3ncnc4[nH]c(-c5ccc(N6CCOCC6)cc5)nc34)cc2C#N)CC1` [Example 203, tert-butyl 4-(2-cyano-4-(8-(4-morpholinophenyl)-9H-purin-6-yl)phenoxy)piperidine-1-carboxylate], the pIC50 at IKKε and on TBK1 was below 6.00 each time.

For the compound `CN1CCN(c2ccc(-c3nc4c(-c5ccc(OC6CCN(C(=O)CO)CC6)c(C#N)c5)ncnc4[nH]3)cc2)CC1` [Example 251, 2-((1-(2-hydroxyacetyl)piperidin-4-yl)oxy)-5-(8-(4-(4-methylpiperazin-1-yl)phenyl)-9H-purin-6-yl)benzonitrile], the pIC50 at IKKε is 9.09; on TBK1, 9.05.

Turning to `N#Cc1cc(-c2ncnc3[nH]c(-c4cccc(Cn5ccnc5)c4)cc23)ccc1OC1CCOCC1` [Example 119, 5-(6-(3-((1H-imidazol-1-yl)methyl)phenyl)-7H-pyrrolo[2,3-d]pyrimidin-4-yl)-2-((tetrahydro-2H-pyran-4-yl)oxy)benzonitrile], the pIC50 on IKKε and at TBK1 was 8.91 each time.

With `N#Cc1cc(-c2ccnc3[nH]c(-c4ccc(N5CC6(COC6)C5)cc4)cc23)ccc1OC1CCOCC1` [Example 46, 5-(2-(4-(2-oxa-6-azaspiro[3.3]heptan-6-yl)phenyl)-1H-pyrrolo[2,3-b]pyridin-4-yl)-2-((tetrahydro-2H-pyran-4-yl)oxy)benzonitrile], on IKKε, the pIC50 is 7.89.

Take `CC(C)(C)n1cc(-c2cc3c(-c4ccc(OC5CCOCC5)c(C#N)c4)ccnc3[nH]2)cn1` [Example 53, 5-(2-(1-(tert-butyl)-1H-pyrazol-4-yl)-1H-pyrrolo[2,3-b]pyridin-4-yl)-2-((tetrahydro-2H-pyran-4-yl)oxy)benzonitrile]: the pIC50 on IKKε is 7.86; on TBK1, 8.03.

As to `N#Cc1cc(-c2ncnc3[nH]c(-c4cccc(N5CCOCC5)c4)cc23)ccc1N1CC(O)C1` [Example 110, 2-(3-hydroxyazetidin-1-yl)-5-(6-(3-morpholinophenyl)-7H-pyrrolo[2,3-d]pyrimidin-4-yl)benzonitrile], the pIC50 at IKKε is 7.24; at TBK1, 7.90.

Regarding `CN1CCN(c2ccc(-c3nc4c(-c5ccc(OC6CCNCC6)c(C#N)c5)ncnc4[nH]3)cc2)CC1` [Example 247, 5-(8-(4-(4-methylpiperazin-1-yl)phenyl)-9H-purin-6-yl)-2-(piperidin-4-yloxy)benzonitrile], the pIC50 at IKKε was 7.77; on TBK1, 7.95.

As for `COc1cc(-c2cc3c(-c4ccc(OC5CCOCC5)c(C#N)c4)ncnc3[nH]2)ccc1N1CCN(C2COC2)CC1` [Example 143, 5-(6-(3-methoxy-4-(4-(oxetan-3-yl)piperazin-1-yl)phenyl)-7H-pyrrolo[2,3-d]pyrimidin-4-yl)-2-((tetrahydro-2H-pyran-4-yl)oxy)benzonitrile], the pIC50 at IKKε is 8.16; on TBK1 it was 8.99.

As for `COc1cc(-c2cc3c(-c4ccc(OC5CCNCC5(F)F)c(C#N)c4)ncnc3[nH]2)ccc1N1CCN(C2COC2)CC1` (centres unmarked) [Example 140, 2-((3,3-difluoropiperidin-4-yl)oxy)-5-(6-(3-methoxy-4-(4-(oxetan-3-yl)piperazin-1-yl)phenyl)-7H-pyrrolo[2,3-d]pyrimidin-4-yl)benzonitrile], the pIC50 is 7.48 on IKKε and 8.45 at TBK1.

As for `N#Cc1cc(-c2ncnc3[nH]c(-c4ccc(C5CCN(CC(F)(F)F)CC5)cc4)nc23)ccc1OC1CCNCC1` [Example 261, 2-(piperidin-4-yloxy)-5-(8-(4-(1-(2,2,2-trifluoroethyl)piperidin-4-yl)phenyl)-9H-purin-6-yl)benzonitrile], the results for the pIC50 at IKKε and on TBK1 were 7.02 and 7.43, respectively.

`N#CCC(=O)N1CC[C@@H](Oc2ccc(-c3ncnc4[nH]c(-c5ccc(N6CCOCC6)cc5)cc34)cc2C#N)C1` [Example 107, (R)-2-((1-(2-cyanoacetyl)pyrrolidin-3-yl)oxy)-5-(6-(4-morpholinophenyl)-7H-pyrrolo[2,3-d]pyrimidin-4-yl)benzonitrile]: the values for the pIC50 at IKKε and on TBK1 were 7.93 and 8.65, respectively.

As for `O=C1NCc2cc(-c3ncnc4[nH]c(-c5ccc(N6CCOCC6)cc5)cc34)ccc21` [Example 221, 5-(6-(4-morpholinophenyl)-7H-pyrrolo[2,3-d]pyrimidin-4-yl)isoindolin-1-one], the pIC50 at IKKε and at TBK1 was 6.00 throughout.

Turning to `N#Cc1cc(-c2ccnc3[nH]c(-c4cnn(C5COC5)c4)cc23)ccc1OC1CCOCC1` [Example 6, 5-(2-(1-(oxetan-3-yl)-1H-pyrazol-4-yl)-1H-pyrrolo[2,3-b]pyridin-4-yl)-2-((tetrahydro-2H-pyran-4-yl)oxy)benzonitrile], the pIC50 at IKKε is 8.31; on TBK1, 8.50.

Regarding `N#Cc1cc(-c2ccnc3[nH]c(-c4ccc(N5CCOCC5)cc4)cc23)ccc1N1CC(O)C1` [Example 52, 2-(3-hydroxyazetidin-1-yl)-5-(2-(4-morpholinophenyl)-1H-pyrrolo[2,3-b]pyridin-4-yl)benzonitrile], the pIC50 at IKKε is 8.48; on TBK1, 7.81.

Turning to `N#Cc1cc(-c2ncnc3[nH]c(-c4ccc(N5CCOCC5)cc4)cc23)ccc1OC1CC2(COC2)C1` [Example 164, 2-(2-Oxaspiro[3.3]heptan-6-yloxy)-5-(6-(4-morpholinophenyl)-7H-pyrrolo[2,3-d]pyrimidin-4-yl)benzonitrile], the pIC50 was 7.02 at IKKε and 7.25 on TBK1.

`N#Cc1cc(-c2ncnc3[nH]c(-c4ccc(N5CCOCC5)cc4)cc23)ccc1OC1CCN(C(=O)CO)CC1` [Example 220, 2-((1-(2-hydroxyacetyl)piperidin-4-yl)oxy)-5-(6-(4-morpholinophenyl)-7H-pyrrolo[2,3-d]pyrimidin-4-yl)benzonitrile]: the pIC50 was 8.83 on IKKε and 9.30 at TBK1.

For `N#Cc1cc(-c2cnnc3[nH]c(-c4ccc(N5CCOCC5)cc4)nc23)ccc1OC1CCOCC1` [Example 401, 5-(8-(4-morpholinophenyl)-9H-imidazo[4,5-c]pyridazin-6-yl)-2-((tetrahydro-2H-pyran-4-yl)oxy)benzonitrile], the pIC50 on IKKε and on TBK1 was below 6.00 in each case.

Consider `COc1cc(-c2cc3c(-c4ccc(OC5CCOCC5)c(C#N)c4)ncnc3[nH]2)ccc1N1CCOCC1` [Example 136, 5-(6-(3-methoxy-4-morpholinophenyl)-7H-pyrrolo[2,3-d]pyrimidin-4-yl)-2-((tetrahydro-2H-pyran-4-yl)oxy)benzonitrile], for which the pIC50 at TBK1 was 9.00.

Consider `N#Cc1cc(-c2ncnc3[nH]c(-c4ccc(N5CCOCC5)nc4)cc23)ccc1OC1CCOCC1` [Example 155, 5-(6-(6-morpholinopyridin-3-yl)-7H-pyrrolo[2,3-d]pyrimidin-4-yl)-2-((tetrahydro-2H-pyran-4-yl)oxy)benzonitrile], for which, at TBK1, the pIC50 was 8.36.

For the compound `COC(=O)c1ccc(-c2cc3c(-c4ccc(OC5CCOCC5)c(C#N)c4)ccnc3[nH]2)cc1` [Example 238, Methyl 4-(4-(3-cyano-4-((tetrahydro-2H-pyran-4-yl)oxy)phenyl)-1H-pyrrolo[2,3-b]pyridin-2-yl)benzoate], on IKKε, the negative-log IC50 (pIC50) was 6.00.

Regarding `Cc1ncc(-c2nc3c(-c4ccc(OC5CCOCC5)c(C#N)c4)ncnc3[nH]2)s1` [Example 231, 5-(8-(2-methylthiazol-5-yl)-9H-purin-6-yl)-2-((tetrahydro-2H-pyran-4-yl)oxy)benzonitrile], the pIC50 on TBK1 was 7.28.

For `CC(C)(O)c1ccc(-c2cc3c(-c4ccc(OC5CCN(C(=O)CO)CC5)c(C#N)c4)ncnc3[nH]2)cn1` [Example 132, 2-((1-(2-hydroxyacetyl)piperidin-4-yl)oxy)-5-(6-(6-(2-hydroxypropan-2-yl)pyridin-3-yl)-7H-pyrrolo[2,3-d]pyrimidin-4-yl)benzonitrile], the pIC50 at TBK1 is 8.49.

For `N#CCC(=O)N1CCN(c2ccc(-c3cc4c(-c5ccc(OC6CCOCC6)c(C#N)c5)ccnc4[nH]3)cc2)CC1` [Example 57, 5-(2-(4-(4-(2-cyanoacetyl)piperazin-1-yl)phenyl)-1H-pyrrolo[2,3-b]pyridin-4-yl)-2-((tetrahydro-2H-pyran-4-yl)oxy)benzonitrile], the pIC50 on IKKε is 8.53.

Consider `N#Cc1cc(-c2ncnc3[nH]c(-c4ccc(N5CCN(CC(F)F)CC5)cc4)cc23)ccc1OC1CCN(C(=O)CO)CC1` [Example 264, 5-(6-(4-(4-(2,2-difluoroethyl)piperazin-1-yl)phenyl)-7H-pyrrolo[2,3-d]pyrimidin-4-yl)-2-((1-(2-hydroxyacetyl)piperidin-4-yl)oxy)benzonitrile], for which the pIC50 at TBK1 was 9.04.

As for `N#Cc1cc(-c2ncnc3[nH]c(C4=CCC5(CC4)OCCO5)cc23)ccc1OC1CCN(C(=O)CO)CC1` [Example 175, 5-(6-(1,4-dioxaspiro[4.5]dec-7-en-8-yl)-7H-pyrrolo[2,3-d]pyrimidin-4-yl)-2-((1-(2-hydroxyacetyl)piperidin-4-yl)oxy)benzonitrile], the pIC50 on IKKε was 8.23.

For the compound `N#Cc1cc(-c2ncnc3[nH]ccc23)ccc1OC1CCOCC1` [Example 108, 5-(7H-pyrrolo[2,3-d]pyrimidin-4-yl)-2-((tetrahydro-2H-pyran-4-yl)oxy)benzonitrile], the negative-log IC50 (pIC50) at IKKε was 5.65.

Turning to `N#Cc1cc(-c2cc3c(-c4ccc(OC5CCOCC5)c(C#N)c4)ncnc3[nH]2)ccc1OC1CCOCC1` [Example 223, 5,5′-(7H-pyrrolo[2,3-d]pyrimidine-4,6-diyl)bis(2-((tetrahydro-2H-pyran-4-yl)oxy)benzonitrile)], on TBK1, the pIC50 was 8.55.

For `N#Cc1cc(-c2ccnc3[nH]c(C#CC4CCOCC4)cc23)ccc1OC1CCOCC1` [Example 35, 5-(2-((tetrahydro-2H-pyran-4-yl)ethynyl)-1H-pyrrolo[2,3-b]pyridin-4-yl)-2-((tetrahydro-2H-pyran-4-yl)oxy)benzonitrile], the negative-log IC50 (pIC50) at TBK1 is 7.28.
